Source: patent US9629843B2, “MTOR modulators and uses thereof” (The Regents of the University of California, priority 2008, dated 2017)

Tests used:
[1] = test system: PC3 cells; assay: Inhibition of proliferation of PC3 cells; format: cell-based; conditions: Homo sapiens, PC-3
[2] = target: T1, mTor (Homo sapiens, UniProt P42345); assay: Kinase inhibition assay, mTor; format: biochemical
T1 construct: Purified kinase domains (e.g. mTor, P110α, P110β, P110γ, P110δ, PI4Kβ, DNA-PK, PKCα, PKCβ1, PKCβII, RET, and JAK2)
T1 sequence (P42345 2156-2469 limits assumed): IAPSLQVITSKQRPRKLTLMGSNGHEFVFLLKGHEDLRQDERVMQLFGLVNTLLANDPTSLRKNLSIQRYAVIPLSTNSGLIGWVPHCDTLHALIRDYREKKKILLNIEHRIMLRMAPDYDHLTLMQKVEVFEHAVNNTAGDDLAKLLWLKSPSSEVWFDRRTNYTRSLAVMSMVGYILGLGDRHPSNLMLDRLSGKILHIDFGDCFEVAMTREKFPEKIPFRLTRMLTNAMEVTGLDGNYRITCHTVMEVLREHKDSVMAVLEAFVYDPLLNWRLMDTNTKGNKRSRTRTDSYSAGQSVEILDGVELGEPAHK

[3] = target: T2, PI3K α (Homo sapiens, UniProt P42336); assay: Kinase inhibition assay, PI3K α; format: biochemical
T2 construct: Purified kinase domains (e.g. mTor, P110α, P110β, P110γ, P110δ, PI4Kβ, DNA-PK, PKCα, PKCβ1, PKCβII, RET, and JAK2)
T2 sequence (P42336 765-1051 limits assumed): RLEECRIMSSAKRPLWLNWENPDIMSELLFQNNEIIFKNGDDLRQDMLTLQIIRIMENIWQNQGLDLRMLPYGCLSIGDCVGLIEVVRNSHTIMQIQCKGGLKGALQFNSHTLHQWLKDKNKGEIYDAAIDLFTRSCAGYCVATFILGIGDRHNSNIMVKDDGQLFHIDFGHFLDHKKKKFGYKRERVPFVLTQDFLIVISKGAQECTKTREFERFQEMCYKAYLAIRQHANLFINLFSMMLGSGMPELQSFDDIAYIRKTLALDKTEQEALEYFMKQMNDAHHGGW
T2 sequence (P27986 whole entry partner, the tested form may be a part): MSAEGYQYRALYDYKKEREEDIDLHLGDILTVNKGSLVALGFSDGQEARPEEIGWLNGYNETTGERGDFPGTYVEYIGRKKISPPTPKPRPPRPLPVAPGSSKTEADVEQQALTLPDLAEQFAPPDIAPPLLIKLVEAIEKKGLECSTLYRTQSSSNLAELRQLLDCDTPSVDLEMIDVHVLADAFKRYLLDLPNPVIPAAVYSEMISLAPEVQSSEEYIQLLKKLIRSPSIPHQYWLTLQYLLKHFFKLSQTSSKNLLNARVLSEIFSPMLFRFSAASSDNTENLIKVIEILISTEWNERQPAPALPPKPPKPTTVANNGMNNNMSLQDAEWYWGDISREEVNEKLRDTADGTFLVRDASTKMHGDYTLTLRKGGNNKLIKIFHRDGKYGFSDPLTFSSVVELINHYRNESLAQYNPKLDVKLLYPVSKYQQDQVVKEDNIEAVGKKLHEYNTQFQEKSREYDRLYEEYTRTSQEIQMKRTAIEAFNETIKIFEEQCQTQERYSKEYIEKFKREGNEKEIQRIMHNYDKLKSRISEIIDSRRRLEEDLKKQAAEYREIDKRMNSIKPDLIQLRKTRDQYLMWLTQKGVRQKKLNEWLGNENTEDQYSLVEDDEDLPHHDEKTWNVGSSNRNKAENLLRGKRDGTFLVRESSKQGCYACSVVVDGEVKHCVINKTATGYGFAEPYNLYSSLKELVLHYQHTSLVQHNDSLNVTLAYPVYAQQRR

[4] = target: T3, PI3K γ (Homo sapiens, UniProt P48736); assay: Kinase inhibition assay, PI3K γ; format: biochemical
T3 construct: Purified kinase domains (e.g. mTor, P110α, P110β, P110γ, P110δ, PI4Kβ, DNA-PK, PKCα, PKCβ1, PKCβII, RET, and JAK2)
T3 sequence (P48736 797-1080 limits assumed): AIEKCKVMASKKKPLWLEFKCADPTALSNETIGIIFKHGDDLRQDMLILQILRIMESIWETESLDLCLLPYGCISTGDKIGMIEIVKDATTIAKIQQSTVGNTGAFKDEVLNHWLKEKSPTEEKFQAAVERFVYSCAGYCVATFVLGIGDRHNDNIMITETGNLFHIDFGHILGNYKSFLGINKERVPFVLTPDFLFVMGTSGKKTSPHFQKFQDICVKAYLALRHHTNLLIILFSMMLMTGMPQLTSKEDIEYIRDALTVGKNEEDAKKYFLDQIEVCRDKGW

[5] = target: T4, PI3K β (Homo sapiens, UniProt P42338); assay: Kinase inhibition assay, PI3K β; format: biochemical
T4 construct: Purified kinase domains (e.g. mTor, P110α, P110β, P110γ, P110δ, PI4Kβ, DNA-PK, PKCα, PKCβ1, PKCβII, RET, and JAK2)
T4 sequence (P42338 772-1053 limits assumed): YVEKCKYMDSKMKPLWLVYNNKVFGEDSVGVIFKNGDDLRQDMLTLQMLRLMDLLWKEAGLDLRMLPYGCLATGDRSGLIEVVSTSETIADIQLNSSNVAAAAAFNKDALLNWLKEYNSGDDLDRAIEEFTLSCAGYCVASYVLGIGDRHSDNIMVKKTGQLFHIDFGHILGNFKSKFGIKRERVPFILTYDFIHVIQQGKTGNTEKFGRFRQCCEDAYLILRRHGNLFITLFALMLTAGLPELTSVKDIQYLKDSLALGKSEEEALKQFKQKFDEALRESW
T4 sequence (P27986 whole entry partner, the tested form may be a part): as the sequence (P27986 whole entry partner, the tested form may be a part) above

[6] = target: T5, PI3K δ (Homo sapiens, UniProt O00329); assay: Kinase inhibition assay, PI3K δ; format: biochemical
T5 construct: Purified kinase domains (e.g. mTor, P110α, P110β, P110γ, P110δ, PI4Kβ, DNA-PK, PKCα, PKCβ1, PKCβII, RET, and JAK2)
T5 sequence (O00329 745-1027 limits assumed): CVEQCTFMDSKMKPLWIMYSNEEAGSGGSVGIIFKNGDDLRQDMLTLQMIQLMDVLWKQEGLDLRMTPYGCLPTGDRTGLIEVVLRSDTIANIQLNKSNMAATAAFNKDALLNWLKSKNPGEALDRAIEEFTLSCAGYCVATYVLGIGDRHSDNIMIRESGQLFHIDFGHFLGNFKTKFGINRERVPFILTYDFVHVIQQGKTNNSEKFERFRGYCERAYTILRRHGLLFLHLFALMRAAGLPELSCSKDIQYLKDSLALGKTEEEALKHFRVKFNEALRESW
T5 sequence (P27986 whole entry partner, the tested form may be a part): as the sequence (P27986 whole entry partner, the tested form may be a part) above

[7] = test system: p190 transduced cells; assay: MTS viability assay of p190 transduced cells; format: cell-based, murine
[8] = test system: p190 BCR-Abl transformed bone marrow cells; assay: Colony forming assay with p190 BCR-Abl transformed murine bone marrow cells; format: cell-based; conditions: compared to rapamycin; FIG. 17
[9] = test system: p190 transduced cells; assay: Combination with imatinib on p190 transduced cells (MTS, combination index); format: cell-based, murine
[10] = test system: ENaC-dependent Na+ current; assay: ENaC-dependent Na+ transport in mpkCCD cells; conditions: prolonged treatment (>24 h)
[11] = test system: p190 leukemic cells; assay: Syngenic mouse leukemia transplant model (p190); format: in vivo, Balb/c mice; conditions: for number of cycling leukemic blasts / apoptosis of leukemic blast cells: bone marrow and spleen; for number of cycling leukemic blasts: FIG. 23; for apoptosis of leukemic blast cells: FIG. 24
Protocol: The murine bone marrow infection/transplantation method was used to determine the effect of kinase inhibitors on disregulated cellular proliferation […]. The MSCV-p190-BCR-Abl-Ires-GFP (MIG-p190) or MSCV-p190-BCR-Abl-Ires-hCD4Δtail (MIC-p190) retroviral vectors were assembled in 293T cells and used to transduce bone marrow cells. The GFP and CD4Δtail markers allow quantitation by FACS analysis and/or enrichment by magnetic sorting of transduced cells.
These cells were administered together with a radioprotective dose of about 5×10^6 normal bone marrow cells from 3-5 week old donor Balb/c mice. […] Mice who became sick after about 14 days were euthanized and lymphoid organs were harvested for analysis. Kinase inhibitor treatment began about 10 days after leukemic cell injection and continued daily until the mice became sick or a maximum of approximately 35 days post-transplant. Inhibitors were given by oral lavage.
Peripheral blood cells were collected approximately on day 10 (pre-treatment) and upon euthanization (post treatment), contacted with labeled anti-hCD4 antibodies and counted by flow cytometry.
Mice were injected with the BrdU analogue EdU and sacrificed. Bone marrow and spleen were collected, blast cells were harvested from the tissue, and stained with antibodies to hCD4, and analyzed by flow cytomtery.
Bone marrow and spleen were collected, blast cells were harvested from the tissue, and stained with antibodies to hCD4, Annexin V, and 7AAD, and analyzed by flow cytometry. […] The results also show significant increase at the concentrations examined in induction of apoptosis at the concentrations examined of imatinib in combination with rapamycin or PI-103.

[12] = test system: CD19+ CD34+ B cell progenitors from Ph+ and Ph− patients; assay: Colony forming assay with human B-ALL cells; format: cell-based; conditions: about 50 nM dasatinib; FIG. 18
[13] = test system: Akt phosphorylation (S473, T308) in L6 myotubes; assay: Akt phosphorylation in insulin stimulated L6 myotubes (immunoblot); format: cell-based; conditions: 100 nM insulin, FIG. 3
Protocol: L6 myoblasts were grown typically grown in DMEM supplemented with about 10% FBS, glutamine and penicillin/streptomycin. Confluent L6 myoblasts were differentiated into mytubes by culturing them for approximately 5 days in media containing about 2% FBS. L6 myotubes were maintained in media containing approximately 2% FBS until use.
In order to compare the effect of TORKinibs and PIK-90 on Akt phosphorylation, L6 myotubes were serum starved overnight and incubated with inhibitors or about 0.1% DMSO for approximately 30 minutes prior to stimulation with insulin (e.g. 100 nM) for about 10 minutes. Cells were lysed by scraping into ice cold lysis buffer (generally: 300 mM NaCl, 50 mM Tris pH 7.5, 5 mM EDTA, 1% TRITON™ X-100, 0.02% NaN3, 20 nM microcystin, Sigma phosphatase inhibitor cocktails 1 and 2, Roche protease inhibitor cocktail and 2 mM PMSF). After contacting cells with lysis buffer, the solution was briefly sonicated. Lysates were cleared by centrifugation, resolved by SDS-PAGE, transferred to nitrocellulose and immunoblotted using antibodies to phospho-Akt S473, phospho-Akt T308, Akt, and β-actin (Cell Signaling Technologies).

[14] = test system: Akt substrates (GSK3, TSC2, FoxO1/O3a) in L6 myotubes; assay: Phosphorylation of Akt substrates in insulin stimulated L6 myotubes; format: cell-based; conditions: FIG. 6
[15] = test system: S6K, S6, 4EBP1 phosphorylation in L6 myotubes; assay: Phosphorylation of S6K, S6 and 4EBP1 in insulin stimulated L6 myotubes; format: cell-based
[16] = test system: Akt phosphorylation (S473, T308) in MEFs; assay: Akt phosphorylation in wild-type and SIN1−/− mouse embryonic fibroblasts (immunoblot); format: cell-based; conditions: SIN1−/− MEFs
Protocol: Wild-type and SIN1−/− primary mouse embryonic fibroblasts (MEFs) were grown in DMEM supplemented with about 10% FBS, glutamine and penicillin/streptomycin. MEFs were treated with TORKinib at about 2.5, 0.63, and 0.16 uM; rapamycin at approximately 15 nM; or PIK-90 at 625 nM for 30 minutes prior to insulin stimulation (e.g. 100 nM) for 10 minutes. Cells were lysed by scraping into ice cold lysis buffer (typically 300 mM NaCl, 50 mM Tris pH 7.5, 5 mM EDTA, 1% TRITON™ X-100, 0.02% NaN3, 20 nM microcystin, Sigma phosphatase inhibitor cocktails 1 and 2, Roche protease inhibitor cocktail and 2 mM PMSF). After contacting cells with lysis buffer, the solution was briefly sonicated. Lysates were cleared by centrifugation, resolved by SDS-PAGE, transferred to nitrocellulose and immunoblotted using antibodies to phospho-Akt S473, phospho-Akt T308, Akt, and β-actin (Cell Signaling Technologies).

[17] = target: T6, PKCα (Homo sapiens, UniProt P17252); assay: Kinase inhibition assay, PKCα; format: biochemical; conditions: at about 1 μM or less
T6 construct: Purified kinase domains (e.g. mTor, P110α, P110β, P110γ, P110δ, PI4Kβ, DNA-PK, PKCα, PKCβ1, PKCβII, RET, and JAK2)

[18] = test system: AML; assay: Colony assay using AML specimens; format: cell-based, Human; conditions: expected
Protocol: Human Ph− B-ALL and AML specimens are obtained. Ph− B-ALL and AML are cytogenetically diverse, with diverse therapeutic regimens currently in use depending on patient risk factors. The majority of Ph− B-ALL patients are treated initially with a combination of three drugs: glucocorticoid (e.g. dexamethasone), vincristine, and asparaginase or anthracycline (e.g. daunorubicin). Most AML patients receive an anthracycline only. Pilot experiments with 3 patient samples are conducted to determine concentrations of vincristine (Ph− ALL) or daunorubicin (AML) that partially reduce colony formation in methylcellulose. It is expected that these drugs are effective in the range of 0.1-1 μM (vincristine) and 3-30 nM (daunorubicin). Optionally, the Ph-ALL assays may be supplemented with dexamethasone and/or daunorubicin.

[19] = test system: cap-dependent translation; assay: Cap-dependent translation, m7GTP affinity, p190 cells; format: cell-based; conditions: IM at 5 μM; FIG. 38D
[20] = test system: myristolated-Akt transgenic thymocytes tumors; assay: Akt murine allograft tumor model; format: in vivo, NOD/SCID mice; conditions: after 20 days of treatment
[21] = test system: Ph− B-ALL; assay: Colony assay using Ph− B-ALL specimens; format: cell-based, Human; conditions: expected

CC(C)n1nc(-c2cc3ccccc3[nH]2)c2c(N)ncnc21
IC50 [1]: 2060 nM | IC50 [2]: 79 nM | IC50 [3]: 11200 nM

CC(C)n1nc(-c2cc3cccc(O)c3[nH]2)c2c(N)ncnc21
IC50 [1]: 38 nM | IC50 [2]: 0.7 nM | IC50 [4]: 450 nM | IC50 [5]: 3580 nM | IC50 [3]: 3460 nM | IC50 [6]: 330 nM

CC(C)n1nc(-c2cc3ccc(O)cc3[nH]2)c2c(N)ncnc21
IC50 [1]: 1000 nM | IC50 [2]: 26 nM | IC50 [4]: 115 nM | IC50 [5]: 2160 nM | IC50 [3]: 279 nM | IC50 [6]: 395 nM

CC(=O)N1CCC(n2nc(-c3cc4cc(O)ccc4[nH]3)c3c(N)ncnc32)CC1
IC50 [1]: 11800 nM | IC50 [2]: 14 nM | IC50 [5]: 25000 nM | IC50 [3]: 5750 nM | IC50 [6]: 9800 nM

Cn1c(=O)n(-c2ccc(C(C)(C)C#N)cc2)c2c3cc(-c4cnc5ccccc5c4)ccc3ncc21 [BEZ235]
IC50 ([7]; Mus musculus, stated as treatment concentration = IC50): ~5 nM | colony forming activity in combination with imatinib [8]: potentiate the effects of a half maximal concentration of imatinib | synergy with imatinib (combination index) ([9]; over a broad dose range, FIG. 16): moderate to strong synergy

Cc1ccccc1-n1c(Cn2cnc3c(N)ncnc32)nc2cccc(C)c2c1=O [IC87114]
type of effect on cell viability ([7]; plateau at high concentrations, 48 hrs): primarily cytostatic

O=c1cc(N2CCOCC2)oc2c(-c3ccccc3)cccc12 [LY294002, reference compound]
toxic effect of prolonged treatment [10]: diminishes electrical resistance and causes morphological changes

Oc1cccc(-c2nc(N3CCOCC3)c3oc4ncccc4c3n2)c1 [PI-103]
number of cycling leukemic blasts [11]: significantly reduced the number of cycling leukemic blasts | apoptosis of leukemic blast cells [11]: induction of apoptosis in leukemic blast cells | colony formation in combination with dasatinib [12]: stronger effect of dasatinib-PI-103 combination as compared to dasatinib-rapamycin combination | effect on anti-proliferative effects of imatinib ([9]; 48 hrs MTS, FIG. 19): potentiate the anti-proliferative effects of imatinib | combination index with imatinib ([9]; over a broad dose range, FIG. 20): more synergistic than rapamycin

COc1ccc2c(c1OC)N=C(NC(=O)c1cccnc1)N1CCN=C21 [PIK-90, reference compound]
insulin stimulated phosphorylation of Akt at S473 and T308 [13]: inhibit the phosphorylation of both Akt sites equipotently | phosphorylation of Akt and its substrates [14]: completely inhibited | phosphorylation of 4EBP1 at T37/46 [15]: does not reduce | phosphorylation of Akt T308 [16]: blocks phosphorylation of T308

CC(C)n1nc(-c2cccc(C(=O)NC3=NCCS3)c2)c2c(N)ncnc21 [PP30]
insulin stimulated phosphorylation of Akt at S473 and T308 [13]: inhibit insulin stimulated phosphorylation of Akt at S473 | inhibition of PKCα [17]: does not inhibit PKCα significantly | phosphorylation of 4EBP1 at T37/46 [15]: able to inhibit

COc1cccc2c1C(=O)c1c(O)c3c(c(O)c1C2=O)C[C@@](O)(C(C)=O)C[C@@H]3O[C@H]1C[C@H](N)[C@H](O)[C@H](C)O1 [daunorubicin]
effective range, partial reduction of colony formation [18]: 3 to 30 nM

Cc1ccc(NC(=O)c2ccc(CN3CCN(C)CC3)cc2)cc1Nc1nccc(-c2cccnc2)n1 [imatinib]
cap-dependent translation [19]: inhibit cap-dependent translation | number of cycling leukemic blasts [11]: significantly reduced the number of cycling leukemic blasts | apoptosis of leukemic blast cells [11]: induction of apoptosis in leukemic blast cells | splenomegaly ([11]; oral lavage daily, FIG. 21): significant decrease in splenomegaly

CO[C@H]1C[C@@H]2CC[C@@H](C)[C@@](O)(O2)C(=O)C(=O)N2CCCC[C@H]2C(=O)O[C@H]([C@H](C)C[C@@H]2CC[C@@H](O)[C@H](OC)C2)CC(=O)[C@H](C)/C=C(\C)[C@@H](O)[C@@H](OC)C(=O)[C@H](C)C[C@H](C)/C=C/C=C/C=C/1C [rapamycin, reference compound]
body weight [20]: maintained body weight

CC[C@]1(O)C[C@H]2CN(CCc3c([nH]c4ccccc34)[C@@](C(=O)OC)(c3cc4c(cc3OC)N(C=O)[C@H]3[C@@](O)(C(=O)OC)[C@H](OC(C)=O)[C@]5(CC)C=CCN6CC[C@]43[C@@H]65)C2)C1 [vincristine, reference compound]
effective range, partial reduction of colony formation [21]: 0.1 to 1 µM
